Reference: patent publication US20260345619A1 (Principia Biopharma Inc., priority 2023, published 2026)

Assay: Loss of asthma control (LOAC) events, 12-week ICS/LABA withdrawal study
Type: in vivo, human
Text: The general construct of this 12-week Loss of Asthma Control (LOAC) study consisted of a 4-week standardized ICS/LABA background therapy stabilization phase, a 4or 5-week background therapy withdrawal phase and a 3- or 4-week no background therapy phase, followed by a 4-week post IMP treatment safety follow-up period at the beginning of which, pre-screening asthma controller medications are restarted. Participants had access to short-acting β-agonist (SABA) reliever medication at all times during the protocol.
The primary endpoint was the proportion of patients with LOAC. The key secondary endpoint for the study was change in pre-bronchodilator FEV1 from baseline at EOT.
The primary endpoint was proportion of participants with LOAC during the 12-week treatment period.
Note that if the number of participants in some regions was too low, these regions may have been pooled with other regions. This strategy also applied to all the rest of the analyses where region was one of the covariates.
To assess the consistency in treatment effects across different subgroup levels, subgroup analyses were to be performed for the primary efficacy endpoint with respect to age group, gender, region, and other factors.
Secondary endpoints included pre-bronchodilator FEV1 change from baseline at EOT, ACQ-5 score change from baseline, and AQLQ score change from baseline. Other secondary and exploratory endpoints are described in Table 2.

[1] = 400 mg TID cohort, N = 64, mITT
[2] = 400 mg TID cohort, age <45 years, n = 25
[3] = 400 mg TID cohort, age ≥45 years, n = 39
[4] = 400 mg TID cohort, baseline BMI <25 kg/m^2, n = 12
[5] = 400 mg TID cohort, baseline BMI ≥25-<30 kg/m^2, n = 29
[6] = 400 mg TID cohort, baseline BMI ≥30 kg/m^2, n = 23
[7] = 400 mg TID cohort, baseline weight <60 kg, n = 2
[8] = 400 mg TID cohort, baseline weight ≥60-<90 kg, n = 41
[9] = 400 mg TID cohort, baseline weight ≥90 kg, n = 21
[10] = 400 mg TID cohort, female, n = 39
[11] = 400 mg TID cohort, male, n = 25
[12] = 400 mg TID, N=64, 12 weeks, mITT
[13] = 400 mg TID, 1 exacerbation within 2 years
[14] = 400 mg TID, 2 exacerbations within 2 years
[15] = 400 mg TID, FEV1 reversibility <12 %
[16] = 400 mg TID, FEV1 reversibility ≥12 %
[17] = 400 mg TID, age at onset <12 years
[18] = 400 mg TID, age at onset <18 years
[19] = 400 mg TID, age at onset ≥18-<40 years
[20] = 400 mg TID, age at onset ≥18 years
[21] = 400 mg TID, age at onset ≥40 years

With CC(C)(C=C(C#N)C(=O)N1CCC[C@@H](n2nc(-c3ccc(Oc4ccccc4)cc3F)c3c(N)ncnc32)C1)N1CCN(C2COC2)CC1 (mixture of isomers) [rilzabrutinib, (R)-2-[3-[4-amino-3-(2-fluoro-4-phenoxy-phenyl)pyrazolo[3,4-d]pyrimidin-1-yl]piperidine-1-carbonyl]-4-methyl-4-[4-(oxetan-3-yl)piperazin-1-yl]pent-2-enenitrile] the “Intervention discontinuation due to lack of efficacy or an AE related to asthma worsening, number” value [1] was 1, the “Intervention discontinuation due to lack of efficacy or an AE related to asthma worsening, percentage” value [1] was “(1.6)” and the “Number of participants requiring hospitalization or emergency room visit” value [1] was 0. For the same molecule, the “Number of participants with LOAC: Yes” value [1] was 12, the “Number of participants with increase in ICS ≥4 times the last prescribed ICS dose (or ≥50% of the prescribed ICS dose at baseline if background therapy withdrawal completed)” value [1] was 0 and the “Number of participants with ≥6 additional reliever puffs of salbutamol/albuterol or levosalbutamol/levalbuterol in a 24 hour period (compared with baseline) on 2 consecutive days” value [1] was 0. The “Number of participants with ≥30% reduction from baseline in AM PEF on 2 consecutive days” value [1] was 10, the “Participants with LOAC not triggered by use of rescue medication, number” value [1] was 10 and the “Participants with LOAC not triggered by use of rescue medication, percentage” value [1] was “(15.6)”. For the same molecule, the “Participants with LOAC triggered by use of rescue medication, number” value [1] was 1, the “Participants with LOAC triggered by use of rescue medication, percentage” value [1] was “(1.6)” and the “Percentage of participants with LOAC: No” value [1] was “(81.3)”. The “Percentage of participants with LOAC: Yes” value [1] was “(18.8)”, the “Percentage of participants with ≥30% reduction from baseline in AM PEF on 2 consecutive days” value [1] was “(15.6)” and the “LOAC incidence, number of participants” value (400 mg TID cohort, Western Countries, n = 2) was 0. For the same molecule, the “LOAC incidence, number of participants” value [2] was 2, the “LOAC incidence, percentage” value [2] was “(8.0)” and the “LOAC OR vs. placebo” value (400 mg TID cohort, age <45 years, 95% CI (0.028, 0.725)) was 0.142. The “LOAC RD vs. placebo” value (400 mg TID cohort, age <45 years, 95% CI (−0.505, −0.093)) was −0.299, the “LOAC incidence, number of participants” value [3] was 10 and the “LOAC incidence, percentage” value [3] was “(25.6)”. The “LOAC OR vs. placebo” value (400 mg TID cohort, age ≥45 years, 95% CI (0.408, 3.236)) was 1.149, the “LOAC RD vs. placebo” value (400 mg TID cohort, age ≥45 years, 95% CI (−0.165, 0.216)) was 0.026 and the “LOAC incidence, number of participants” value [4] was 3. For the same molecule, the “LOAC incidence, percentage” value [4] was “(25.0)”, the “LOAC OR vs. placebo” value (400 mg TID cohort, baseline BMI <25 kg/m^2, 95% CI (0.121, 2.801)) was 0.583 and the “LOAC RD vs. placebo” value (400 mg TID cohort, baseline BMI <25 kg/m^2, 95% CI (−0.431, 0.203)) was −0.114. The “LOAC incidence, number of participants” value [5] was 3, the “LOAC incidence, percentage” value [5] was “(10.3)” and the “LOAC OR vs. placebo” value (400 mg TID cohort, baseline BMI ≥25-<30 kg/m^2, 95% CI (0.064, 1.172)) was 0.274. For the same molecule, the “LOAC RD vs. placebo” value (400 mg TID cohort, baseline BMI ≥25-<30 kg/m^2, 95% CI (−0.398, 0.012)) was −0.193, the “LOAC incidence, number of participants” value [6] was 6 and the “LOAC incidence, percentage” value [6] was “(26.1)”. For the same molecule, the “LOAC OR vs. placebo” value (400 mg TID cohort, baseline BMI ≥30 kg/m^2, 95% CI (0.313, 5.604)) was 1.324, the “LOAC RD vs. placebo” value (400 mg TID cohort, baseline BMI ≥30 kg/m^2, 95% CI (−0.206, 0.307)) was 0.050 and the “LOAC incidence, number of participants” value [7] was 1. The “LOAC incidence, percentage” value [7] was “(50.0)”, the “LOAC OR vs. placebo” value (400 mg TID cohort, baseline weight <60 kg, 95% CI (0.140, 64.262)) was 3.000 and the “LOAC RD vs. placebo” value (400 mg TID cohort, baseline weight <60 kg, 95% CI (−0.485, 0.985)) was 0.250. For the same molecule, the “LOAC incidence, number of participants” value [8] was 8, the “LOAC incidence, percentage” value [8] was “(19.5)” and the “LOAC OR vs. placebo” value (400 mg TID cohort, baseline weight ≥60-<90 kg, 95% CI (0.182, 1.392)) was 0.503. The “LOAC RD vs. placebo” value (400 mg TID cohort, baseline weight ≥60-<90 kg, 95% CI (−0.319, 0.059)) was −0.130, the “LOAC incidence, number of participants” value [9] was 3 and the “LOAC incidence, percentage” value [9] was “(14.3)”. For the same molecule, the “LOAC OR vs. placebo” value (400 mg TID cohort, baseline weight ≥90 kg, 95% CI (0.095, 2.645)) was 0.500, the “LOAC RD vs. placebo” value (400 mg TID cohort, baseline weight ≥90 kg, 95% CI (−0.367, 0.153)) was −0.107 and the “LOAC incidence, number of participants” value [10] was 8. The “LOAC incidence, percentage” value [10] was “(20.5)”, the “LOAC OR vs. placebo” value (400 mg TID cohort, female, 95% CI (0.224, 1.828)) was 0.640 and the “LOAC RD vs. placebo” value (400 mg TID cohort, female, 95% CI (−0.291, 0.123)) was −0.084. The “LOAC incidence, number of participants” value [11] was 4, the “LOAC incidence, percentage” value [11] was “(16.0)” and the “LOAC OR vs. placebo” value (400 mg TID cohort, male, 95% CI (0.091, 1.966)) was 0.423. The “participants without LOAC, number” value [12] was 52, the “participants without LOAC, percent” value [12] was “(81.3)” and the “participants with LOAC, number” value (400 mg TID, N=64, 12 weeks, mITT, placebo 20) was 12. For the same molecule, the “participants with LOAC, percent” value (400 mg TID, N=64, 12 weeks, mITT, placebo […]) was 18.8%, the “RRR vs. placebo (%), LOAC” value (400 mg TID, mITT) was 34.7% and the “RR vs. placebo, LOAC” value (400 mg TID, mITT, 95% CI 0.348, 1.226) was 0.653. For the same molecule, the “RD (risk difference) vs. placebo, LOAC” value (400 mg TID, mITT, 95% CI −0.238, 0.061) was −0.088, the OR vs. placebo [13] was 0.323 and the “RD vs. Placebo” value [13] was −0.194. For the same molecule, the “LOAC, number” value [14] was 7, the OR vs. placebo [14] was 1.896 and the “RD vs. Placebo” value [14] was 0.117. For the same molecule, the “LOAC, number” value (400 mg TID, >2 exacerbations within 2 years) was 0, the “LOAC, number” value [15] was 9 and the OR vs. placebo [15] was 0.643. For the same molecule, the “RD vs. Placebo” value [15] was −0.082, the “LOAC, number” value [16] was 1 and the OR vs. placebo [16] was 0.417. For the same molecule, the “RD vs. Placebo” value [16] was −0.090, the “LOAC, number” value [17] was 2 and the OR vs. placebo [17] was 0.250. For the same molecule, the “RD vs. Placebo” value [17] was −0.257, the “LOAC, number” value [18] was 2 and the OR vs. placebo [18] was 0.218. The “RD vs. Placebo” value [18] was −0.245, the “LOAC, number” value (400 mg TID, age at onset ≥12-<18 years) was 0 and the “LOAC, number” value [19] was 6. The OR vs. placebo [19] was 0.514, the “RD vs. Placebo” value [19] was −0.135 and the “LOAC, number” value [20] was 10. For the same molecule, the OR vs. placebo [20] was 0.769, the “RD vs. Placebo” value [20] was −0.049 and the “LOAC, number” value [21] was 4. For the same molecule, the OR vs. placebo [21] was 1.619, the “RD vs. Placebo” value [21] was 0.072 and the “LOAC, number” value (400 mg TID, all others than low EOS and low FeNO) was 8.
